Test results: US4539206A, “Topical compositions containing copper (II) complexes of 3,5-dioxo-pyrazolidine derivatives and methods of combatting inflammation with them” (Alcusal Incorporated Pty. Ltd., priority 1981, dated 1985)
Read-outs that look alike come from different tables or passages of the source.

How the values were obtained:
[1] = system: arthritis induced by arthritogenic adjuvant (M. tuberculosis in squalane); test: anti-arthritic activity in established adjuvant arthritis, topical application; type: in vivo, PVG x DA rats; details: day 12 to day 16, once daily 5 ml/kg for 4 days, means ± standard error; for increase in paw thickness (mm), tail: DMSO controls 0.9 ± 0.2; for increase in paw thickness (mm), rear paws: DMSO controls 2.2 ± 0.1
[2] = Bio-distribution of ^64 Cu(PB)2.x DMSO after topical application to rats; type: in vivo, male white rats; details: for Bio-distribution of ^64 Cu as % of Original Applied, Faeces: assumed faecal output; for Bio-distribution of ^64 Cu as % of Original Applied, Blood (20 ml): assumed total blood volume; for Bio-distribution of ^64 Cu as % of Original Applied, Urine: assumed urine output
Description: (1) The copper (II) phenylbutazone complex labelled with ^64 Cu was prepared as follows: Radioactive copper (II) acetate containing 3 mCi of ^64 Cu (A.A.E.C. Lucas Heights) was mixed with copper (II) acetate monohydrate (0.250 g), phenylbutazone (0.964 g) and dissolved in DMSO (10 ml). Glycerol (2.5 ml) was added later.
Six male white rats (average weight 250 g) were anaesthetised with halothane and an area of skin (ca 20 cm^2) immediately below the neck was shaved with electric hair clippers. Two aliquots (each 0.75 ml) were applied to each rat, whilst anaesthetised, over a period of one hour.
Each rat was placed separately in an experimental cage which permitted collection of both urine and faeces. At times of 6, 24 and 48 hours after topical application, two rats were anaesthetised with ether and euthenased by decapitation in a guillotine. Each organ except the thymus, spleen and the adrenals were cut into two samples for more accurate counting. This was done on a Packard automatic γ spectrometer for periods from 1 to 10 minutes.
All counts were corrected to zero time per gram of wet tissue. After 24 and 48 hours, the faeces were dry and the activity in them is not recorded in FIG. 3.
In Table 1, the results for the location in the rats of the ^64 Cu activity at 6, 24 and 48 hours after topical application are shown.

[3] = Cu^2+ + 2HPB = [Cu(PB)2] + 2H^+, room temperature, DMSO, absorbance at 430 nm
Description: The following solutions were prepared in DMSO using stock solutions of 0.01 M copper (II) acetate (A) and 0.20 M phenylbutazone (B)
and the spectra were measured using a Varian Techtron 634S UV-visible spectrophotometer and 1 cm cells.
In FIG. 2, a plot of absorbance (arbitrary scale) at 430 nm versus molar ratio of phenylbutazone (HPB) to copper has been made. […]

[4] = system: sodium carrageenan-induced paw oedema; details: 5 ml/kg, 0.1 M copper (II) acetate containing 0.25 M phenylbutazone in DMSO, controls DMSO
Description: (§1) We have carried out assays for acute anti-inflammatory and anti-arthritic activities by procedures described previously in W. R. Walker, S. J. Beveridge and M. W. Whitehouse, "Anti-inflammatory Activity of a Dermally Applied Copper Salicylate Preparation (Alcusal)", Agents and Actions 10, 38 (1980).
(§2) (a) Male Wistar rats were shaved (ca 20 cm^2) behind the neck and a solution of 0.1 M copper (II) acetate containing 0.25 M phenylbutazone in DMSO was applied (5 ml/kg). The first application was made 2.5 hr before injecting sodium carrageenan solution into the paw (a 0.1 ml injection delivering 1 mg in 0.15 M NaCl) to induce oedema. A second application of the copper phenylbutazone, if made, was at 1.5 hr before the carrageenan was injected.
(§3) The swelling was measured unidimensionally as increase in paw thickness after 2 and 4 hrs using a micrometer screw gauge. Controls were treated with DMSO only.

[5] = system: hydroxylapatite-induced paw swelling; details: applied ×2; hydroxylapatite 50 mg/ml, 0.15 ml injected
Description: as §1, §2, §3

[6] = applied ×1 (2.5 hr before carrageenan)
[7] = applied ×2 (2.5 and 1.5 hr before carrageenan)

Q: Which “increase in paw thickness (mm), tail” value [1] does the source give for `CCCCC1C(=O)N(c2ccccc2)N(c2ccccc2)C1=O` [HPB, phenylbutazone, reference compound] here?
A: 0.3 ± 0.1 mm

Q: And the “increase in paw thickness (mm), rear paws” value [1]?
A: 1.0 ± 0.2 mm

Q: Which “absorption after topical application” value ([2]; result in words) does the source give for `CCCC[c-]1c(=O)n(-c2ccccc2)n(-c2ccccc2)c1=O.CCCC[c-]1c(=O)n(-c2ccccc2)n(-c2ccccc2)c1=O.[Cu+2]` [[Cu(PB)2].x(DMSO), copper (II) di(phenylbutazone)] here?
A: readily enters the bloom stream

Q: What about the dermal penetration ([2]; result in words) of the same compound?
A: excellent dermal penetration

Q: What about the “equilibrium constant, log K” value ([3]; listed as Cu(PB)2. xDMSO) of the same compound?
A: ~4.7

Q: What about the “equilibrium constant, log K” value ([3]; listed as [Cu(PB)2 ]) of the same compound?
A: ~ 4.7

Q: And the “increase in paw thickness (mm), tail” value [1]?
A: 0.3 ± 0.2 mm

Q: What about the “increase in paw thickness (mm), rear paws” value [1] of the same compound?
A: 0.4 ± 0.1 mm

Q: What about the “% inhibition of paw swelling at 2 hr” value [4, 6] of the same compound?
A: 34%

Q: And the “% inhibition of paw swelling at 4 hr” value [4, 6]?
A: 33%

Q: And the “% inhibition of paw swelling at 2 hr” value [4, 7]?
A: 65%

Q: What about the “% inhibition of paw swelling at 4 hr” value [4, 7] of the same compound?
A: 71%

Q: What about the “% inhibition of paw swelling at 2 hr” value [5] of the same compound?
A: 42%

Q: And the “% inhibition of paw swelling at 4 hr” value [5]?
A: 76%

Q: Which “Bio-distribution of ^64 Cu as % of Original Applied, Adrenals” value (from here on “Bio-distribution of ^64 Cu as % … Adrenals”) ([2]; 6 h) does the source give for `CCCC[c-]1c(=O)n(-c2ccccc2)n(-c2ccccc2)c1=O.CCCC[c-]1c(=O)n(-c2ccccc2)n(-c2ccccc2)c1=O.[64Cu+2]` [^64 Cu(PB)2.x DMSO] here?
A: -- (less than 0.004%)

Q: And the “Bio-distribution of ^64 Cu as % of Original Applied, Brain” value (“Bio-distribution of ^64 Cu as % … Brain” for short) ([2]; 6 h)?
A: 0.02%

Q: And the “Bio-distribution of ^64 Cu as % of Original Applied, Heart” value (from here on “Bio-distribution of ^64 Cu as % … Heart”) ([2]; 6 h)?
A: 0.01%

Q: What about the “Bio-distribution of ^64 Cu as % of Original Applied, Kidney” value (from here on “Bio-distribution of ^64 Cu as % … Kidney”) ([2]; 6 h) of the same compound?
A: 0.04%

Q: What about the “Bio-distribution of ^64 Cu as % of Original Applied, Liver” value (shortened to “Bio-distribution of ^64 Cu as % … Liver”) ([2]; 6 h) of the same compound?
A: 6.22%

Q: What about the “Bio-distribution of ^64 Cu as % of Original Applied, Skin (application site)” value ([2]; 6 h) of the same compound?
A: 5.34%

Q: And the “Bio-distribution of ^64 Cu as % of Original Applied, Spleen” value (shortened to “Bio-distribution of ^64 Cu as % … Spleen”) ([2]; 6 h)?
A: 0.01%

Q: What about the “Bio-distribution of ^64 Cu as % of Original Applied, Thymus” value (“Bio-distribution of ^64 Cu as % … Thymus” below) ([2]; 6 h) of the same compound?
A: 0.01%

Q: What about the “Bio-distribution of ^64 Cu as % of Original Applied, Faeces” value (from here on “Bio-distribution of ^64 Cu as % … Faeces”) ([2]; 6 h) of the same compound?
A: 0.07%

Q: And the “Bio-distribution of ^64 Cu as % of Original Applied, Blood (20 ml)” value (shortened to “Bio-distribution of ^64 Cu as % … (20 ml)”) ([2]; 6 h)?
A: 0.09%

Q: What about the “Bio-distribution of ^64 Cu as % of Original Applied, Urine” value (“Bio-distribution of ^64 Cu as % … Urine” for short) ([2]; 6 h) of the same compound?
A: 0.04%

Q: What about the “Bio-distribution of ^64 Cu as % … Adrenals” value ([2]; 24 h) of the same compound?
A: -- (less than 0.004%)

Q: What about the “Bio-distribution of ^64 Cu as % … Brain” value ([2]; 24 h) of the same compound?
A: 0.01%

Q: And the “Bio-distribution of ^64 Cu as % … Heart” value ([2]; 24 h)?
A: -- (less than 0.004%)

Q: And the “Bio-distribution of ^64 Cu as % … Kidney” value ([2]; 24 h)?
A: 0.04%

Q: And the “Bio-distribution of ^64 Cu as % … Liver” value ([2]; 24 h)?
A: 0.17%

Q: And the “Bio-distribution of ^64 Cu as % of Original Applied, Skin (application site)” value ([2]; 24 h)?
A: 3.81%

Q: And the “Bio-distribution of ^64 Cu as % … Spleen” value ([2]; 24 h)?
A: -- (less than 0.004%)

Q: What about the “Bio-distribution of ^64 Cu as % … Thymus” value ([2]; 24 h) of the same compound?
A: -- (less than 0.004%)

Q: And the “Bio-distribution of ^64 Cu as % … Faeces” value ([2]; 24 h)?
A: 28.9%

Q: What about the “Bio-distribution of ^64 Cu as % … (20 ml)” value ([2]; 24 h) of the same compound?
A: 0.08%

Q: What about the “Bio-distribution of ^64 Cu as % … Urine” value ([2]; 24 h) of the same compound?
A: 0.21%

Q: What about the “Bio-distribution of ^64 Cu as % … Adrenals” value ([2]; 48 h) of the same compound?
A: -- (less than 0.004%)

Q: And the “Bio-distribution of ^64 Cu as % … Brain” value ([2]; 48 h)?
A: 0.01%

Q: And the “Bio-distribution of ^64 Cu as % … Heart” value ([2]; 48 h)?
A: -- (less than 0.004%)

Q: And the “Bio-distribution of ^64 Cu as % … Kidney” value ([2]; 48 h)?
A: 0.04%

Q: And the “Bio-distribution of ^64 Cu as % … Liver” value ([2]; 48 h)?
A: 0.15%

Q: And the “Bio-distribution of ^64 Cu as % of Original Applied, Skin (application site)” value ([2]; 48 h)?
A: 1.02%

Q: What about the “Bio-distribution of ^64 Cu as % … Spleen” value ([2]; 48 h) of the same compound?
A: 0.01%

Q: And the “Bio-distribution of ^64 Cu as % … Thymus” value ([2]; 48 h)?
A: -- (less than 0.004%)

Q: What about the “Bio-distribution of ^64 Cu as % … Faeces” value ([2]; 48 h) of the same compound?
A: 49.9%

Q: And the “Bio-distribution of ^64 Cu as % … (20 ml)” value ([2]; 48 h)?
A: 0.08%

Q: What about the “Bio-distribution of ^64 Cu as % … Urine” value ([2]; 48 h) of the same compound?
A: 0.40%

Q: And the “^64 Cu found in the faeces” value ([2]; after two days, topical application, 2880 min)?
A: about 50%

Q: What about the “clearance of ^64 Cu from the system” value ([2]; result in words) of the same compound?
A: cleared from the system in several days

Q: And the “activity of ^64 Cu in the skin at the site of application” value ([2]; result in words, 6 to 48 h)?
A: decreases linearly with time
